Results published in PubChem BioAssay (NCI).
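Method: 48-hour compound exposure of cells in 96-well plates, five concentrations, linear interpolation of endpoints. The concentration for full growth arrest is given as TGI.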

Legend:
Test in all cases: growth of human tumour cells (NCI), 48 h
[1] = test system: 786-0 renal
[2] = test system: A498 renal
[3] = test system: A549 NSCLC
[4] = test system: ACHN renal
[5] = test system: CAKI-1 renal
[6] = test system: CCRF-CEM leukemia
[7] = test system: COLO 205 colon
[8] = test system: DLD-1 colon
[9] = test system: DMS 114 small cell lung
[10] = test system: DMS 273 small cell lung
[11] = test system: EKVX NSCLC
[12] = test system: HCC-2998 colon
[13] = test system: HCT-116 colon
[14] = test system: HCT-15 colon
[15] = test system: HL-60(TB) leukemia
[16] = test system: HOP-62 NSCLC
[17] = test system: HT29 colon
[18] = test system: IGROV1 ovarian
[19] = test system: K-562 leukemia
[20] = test system: KM12 colon
[21] = test system: KM20L2 colon
[22] = test system: M14 melanoma
[23] = test system: M19-MEL melanoma
[24] = test system: MALME-3M melanoma
[25] = test system: MOLT-4 leukemia
[26] = test system: NCI-H226 lung
[27] = test system: NCI-H23 lung
[28] = test system: NCI-H460 lung
[29] = test system: NCI-H522 lung
[30] = test system: OVCAR-3 ovarian
[31] = test system: OVCAR-4 ovarian
[32] = test system: OVCAR-5 ovarian
[33] = test system: OVCAR-8 ovarian
[34] = test system: RPMI-8226 leukemia
[35] = test system: RXF 393 renal
[36] = test system: SF-268 CNS
[37] = test system: SF-295 CNS
[38] = test system: SF-539 CNS
[39] = test system: SK-MEL-2 melanoma
[40] = test system: SK-MEL-28 melanoma
[41] = test system: SK-OV-3 ovarian
[42] = test system: SN12C renal
[43] = test system: SNB-19 CNS
[44] = test system: SNB-75 CNS
[45] = test system: SNB-78 CNS
[46] = test system: SW-620 colon
[47] = test system: TK-10 renal
[48] = test system: U251 CNS
[49] = test system: UACC-257 melanoma
[50] = test system: UACC-62 melanoma
[51] = test system: UO-31 renal
[52] = test system: HOP-92 NSCLC
[53] = test system: LXFL 529 NSCLC
[54] = test system: SK-MEL-5 melanoma
[55] = test system: SR leukemia

Measured: TGI

O=c1c2ccccc2c(=O)c2c1cc(Cl)c1[nH]c3c([nH]c12)c(Cl)cc1c(=O)c2ccccc2c(=O)c13
not listed: [52] | [53] | [54] | [55]
> 100 µM: all other assays above

CN(c1ccccc1)C1C(=O)N(c2ccccc2)C1/C=C/c1ccccc1 (centres undefined)
not listed: [9] | [14] | [16] | [19] | [21] | [22] | [31]
> 100 µM: all other assays above
